Non-standard residues stand in square brackets, D forms with d. No end group written: not given here. KLH = keyhole limpet hemocyanin; Ahx = NCCCCCC(=O)O
How the values were obtained:
[1] = tested on: aggregated human αSyn; experiment: Antibody-inducing ability in mice: ELISA antibody titer of immune serum with respect to aggregated human αSyn; format: in vivo, mouse; conditions: for Antibody titer with respect to aggregated human αSyn, relative to control: mice; for Antibody titer with respect to aggregated human αSyn (N = 4 − 6, mean ± standard deviation): Example 2, serum 2 weeks after second administration
Procedure: (§1) Using the various AJ peptide-human αSyn peptide conjugates produced in Example 1, an antibody-inducing ability with respect to human αSyn in mice was evaluated. The various AJ-human αSyn peptide conjugates (250 μg/mouse) or KLH-DMPVDPDN (25 μg/mouse) in physiological saline were intramuscularly administered to balb/c mice (females, 6 weeks old, CLEA Japan, Inc.) twice at a 2-week interval for immunization using aluminum hydroxide (Alum) (InvivoGen, 50 μg/mouse) as an adjuvant. As a negative control, physiological saline (100 μL/mouse) comprising the same amount of aluminum hydroxide was administered twice. Two weeks after the second administration, serum was recovered to evaluate the antibody titer with respect to human αSyn by ELISA.
(§2) ELISA was performed by the following method. 96-well plates were coated with human αSyn (Sigma) at 0.2 μg/well. After washing with PBST (Phosphate Buffered Saline comprising 0.05% Tween) once, blocking was performed with 3% skim milk (FUJIFILM Wako Pure Chemical Corporation). After washing with PBST three times, diluted serum was added to cause a reaction at room temperature for 1 hour. Furthermore, after washing with PBST three times, Goat anti-mouse IgG-HRP (abcam) was added to cause a reaction at room temperature for 1 hour. After washing with PBST three times, SureBlue TMB Microwell Peroxidase Substrate (KPL) was added to cause a reaction at room temperature for 10 minutes while light shielding. An equal volume of a TMB Stop Solution (KPL) was added to stop the reaction, and the absorbance at 450 nm was measured. ELISA with respect to aggregated human αSyn was performed by coating with the aggregated human αSyn (Stress Marq) at 15 ng/well instead of human αSyn in the above-mentioned method.
The antibody-inducing ability of the AJ-human αSyn peptide conjugates (AJ-p54, AJ-p54-KLH, and AJ-DMPVDPDN) produced in Example 1 with respect to human αSyn and aggregated human αSyn in mice was evaluated. Physiological saline or the AJ-human αSyn peptide conjugate (250 μg/mouse) was intramuscularly administered to balb/c mice (females, 6 weeks old, CLEA Japan, Inc.) twice at a 2-week interval using Alum (InvivoGen, 50 μg/mouse) as an adjuvant. Furthermore, KLH-DMPVDPDN (25 μg/mouse) was administered using Alum (InvivoGen, 50 μg/mouse) as an adjuvant. Two weeks after the second administration, serum was recovered to evaluate the antibody titer by ELISA. ELISA was performed by the method described in Example 2.
The antibody-inducing ability of the produced various human αSyn peptide conjugates with respect to human αSyn and aggregated human αSyn in the mice was evaluated by the method described in Example 2 using the antibody titers with respect to human αSyn and aggregated human αSyn of the mouse immune serum. […] In Table 6, the antibody titer of AJ-p242, AJ-p244, AJ-p347, or AJ-p361 is shown with the antibody titer of AJ-p150 as a control being 1 (logarithm). In addition, the antibody titers of AJ-p229, AJ-p237, and AJ-p298 are shown with the antibody titer of AJ-p54 as a control being 1 (logarithm).
The antibody-inducing ability of the AJ-human αSyn peptide conjugates with a modified linker with respect to human αSyn and aggregated human αSyn in the mice was evaluated using the antibody titers with respect to human αSyn and aggregated human αSyn of the mouse immune serum. […] In Table 8, the antibody titers of the AJ-human αSyn peptide conjugates with various modified linkers comprising p54 are shown with the antibody titer of AJ-p54 as a control being 1 (logarithm). In addition, the antibody titers of the AJ-human αSyn peptide conjugates with various modified linkers comprising p150 are shown with the antibody titer of AJ-p150 as a control being 1 (logarithm).

[2] = tested on: human αSyn; experiment: Antibody-inducing ability in mice: ELISA antibody titer of immune serum with respect to human αSyn; format: in vivo, mouse; set-up: key to Antibody titer with respect to human αSyn, relative to control: log titer relative to control conjugate (control = 1); conditions: for Antibody titer compared with control conjugate (in words): Example 9, mice, human αSyn and aggregated human αSyn, control AJ-p150 or AJ-p54; for Antibody titer with respect to human αSyn, relative to control / Antibody titer (N = 4 − 6, mean ± standard deviation) with respect to human αSyn: mice; for Antibody titer with respect to human αSyn (N = 4 − 6, mean ± standard deviation): Example 2, serum 2 weeks after second administration; for Antibody titer (N = 4 − 6, mean ± standard deviation) with respect to human αSyn: Example 3, same manner as Example 2
Procedure: as §1
as §2, with “above-mentioned method. […]” for “above-mentioned method.”
The antibody-inducing ability of the produced various human αSyn peptide conjugates with respect to human αSyn and aggregated human αSyn in the mice was evaluated by the method described in Example 2 using the antibody titers with respect to human αSyn and aggregated human αSyn of the mouse immune serum. […] In Table 6, the antibody titer of AJ-p242, AJ-p244, AJ-p347, or AJ-p361 is shown with the antibody titer of AJ-p150 as a control being 1 (logarithm). In addition, the antibody titers of AJ-p229, AJ-p237, and AJ-p298 are shown with the antibody titer of AJ-p54 as a control being 1 (logarithm). […]

[3] = Example 9, N = 4, titer of AJ-p150 or AJ-p54 as control being 1 (logarithm)
[4] = balb/c mice, i.m. twice at 2-week interval, Alum, AJ conjugates 250 μg/mouse, KLH-DMPVDPDN 25 μg/mouse
[5] = Example 4, balb/c mice, i.m. twice at 2-week interval, Alum, AJ conjugates 250 μg/mouse, KLH-DMPVDPDN 25 μg/mouse
[6] = Example 10, modified linker, titer of AJ-p54 or AJ-p150 as control being 1 (logarithm)

Row | Substance | Antibody titer with respect to aggregated human αSyn, relative to control [1, 3] | Antibody titer compared with control conjugate (in words) [2] | Antibody titer with respect to human αSyn, relative to control [2, 3] | Antibody titer with respect to aggregated human αSyn (N = 4 − 6, mean ± standard deviation) [1, 4] | Antibody titer with respect to human αSyn (N = 4 − 6, mean ± standard deviation) [2, 4] | further results
1 | ELKLIFLHRLKRLRKRLKRKXDAFEMPSEEG (ELKLIFLHRLKRLRKRLKRK[Ahx]DAFEMPSEEG) [AJ-p361] | 0.95 | same level of an antibody titer | 0.92 | – | – | –
2 | ELKLIFLHRLKRLRKRLKRKXDAYEMPSEEG (ELKLIFLHRLKRLRKRLKRK[Ahx]DAYEMPSEEG) [AJ-p276] | – | – | – | 896 ± 256 | 1792 ± 512 | –
3 | ELKLIFLHRLKRLRKRLKRKXDMPVDPDN (ELKLIFLHRLKRLRKRLKRK[Ahx]DMPVDPDN) [AJ-DMPVDPDN, reference compound] | – | – | – | – | – | Induction of the antibody to aggregated human αSyn (in words) ([1]; Example 4, balb/c mice): very weak antibody-inducing effect; Antibody titer with respect to aggregated human αSyn (mean ± standard deviation) [1, 5]: 358 ± 140; Induction of the antibody to human αSyn (in words) ([2]; Example 4, balb/c mice): very weak antibody-inducing effect; Antibody titer with respect to human αSyn (mean ± standard deviation) [2, 5]: 168 ± 122
4 | ELKLIFLHRLKRLRKRLKRKXEAAEMPSEEG (ELKLIFLHRLKRLRKRLKRK[Ahx]EAAEMPSEEG) [AJ-p244] | 1.10 | same level of an antibody titer | 1.06 | – | – | –
5 | ELKLIFLHRLKRLRKRLKRKXEAFEMPSEEG (ELKLIFLHRLKRLRKRLKRK[Ahx]EAFEMPSEEG) [AJ-p277] | – | – | – | 576 ± 322 | 1920 ± 1585 | –
6 | ELKLIFLHRLKRLRKRLKRKXEAYEMPSEDG (ELKLIFLHRLKRLRKRLKRK[Ahx]EAYEMPSEDG) [AJ-p283, AJ peptide linked to p283 via ε-Acp (X)] | – | – | – | 1152 ± 644 | 2304 ± 1289 | Antibody-inducing ability regarding the aggregated human αSyn (in words) ([1]; Example 2, balb/c mice): particularly strong antibody-inducing ability
7 | ELKLIFLHRLKRLRKRLKRKXEAYEMPSEE (ELKLIFLHRLKRLRKRLKRK[Ahx]EAYEMPSEE) [AJ-p150, AJ peptide linked to p150 via ε-Acp (X)] | 1 | – | 1 | 576 ± 322 | 2176 ± 1471 | Antibody titer with respect to aggregated human αSyn, relative to control [1, 6]: 1; Antibody titer with respect to human αSyn, relative to control [2, 6]: 1
8 | ELKLIFLHRLKRLRKRLKRKXHAFEMPSEEG (ELKLIFLHRLKRLRKRLKRK[Ahx]HAFEMPSEEG) [AJ-p347] | 0.97 | same level of an antibody titer | 0.97 | – | – | –
9 | ELKLIFLHRLKRLRKRLKRKXKKDELGKDE (ELKLIFLHRLKRLRKRLKRK[Ahx]KKDELGKDE) [AJ-p298] | 0.93 | same level of an antibody titer | 0.82 | – | – | –
10 | KKDQLGKNE-C-KLH (KKDQLGKNEC-{KLH}) [p54-KLH, KLH-human αSyn peptide conjugate] | – | – | – | – | – | Induction of the antibody to human αSyn (in words) ([2]; Example 3, mice): the antibody to human αSyn was induced; Antibody titer (N = 4 − 6, mean ± standard deviation) with respect to human αSyn [2]: 3072 ± 2748
11 | KLH-C-ELKLIFLHRLKRLRKRLKRKXKKDQLGKNE ({KLH}-CELKLIFLHRLKRLRKRLKRK[Ahx]KKDQLGKNE) [KLH-AJ-p54, KLH-modified AJ-human αSyn peptide conjugate, KLH linked via cysteine to the N-terminal] | – | – | – | – | – | Induction of the antibody to human αSyn (in words) ([2]; Example 3, mice): induced to the same extent; Antibody titer (N = 4 − 6, mean ± standard deviation) with respect to human αSyn [2]: 1707 ± 1240
12 | KLH-C-KKDQLGKNE ({KLH}-CKKDQLGKNE) [KLH-p54, KLH-human αSyn peptide conjugate] | – | – | – | – | – | Induction of the antibody to human αSyn (in words) ([2]; Example 3, mice): the antibody to human αSyn was induced; Antibody titer (N = 4 − 6, mean ± standard deviation) with respect to human αSyn [2]: 4096 ± 2243

Source: patent publication US20240270801A1, “EPITOPE PEPTIDE OF HUMAN ALPHA-SYNUCLEIN AND PHARMACEUTICAL COMPOSITION INCLUDING SAID PEPTIDE” (Sumitomo Pharma Co., Ltd., priority 2021, published 2024)
